The values below come from patent US9499538B2, “Estrogen receptor modulators and uses thereof” (Seragon Pharmaceuticals, Inc., priority 2012, dated 2016).

What is called IC50 is the concentration that gives 50% inhibition. High values mean a need for much substance, low ones inhibition by little substance.

Assay [1] deals with T1, ER-α in MCF-7 cells (Homo sapiens, UniProt P03372).
T1 construct: endogenous in cells; host or cells: MCF-7
T1 sequence (P03372 1-595): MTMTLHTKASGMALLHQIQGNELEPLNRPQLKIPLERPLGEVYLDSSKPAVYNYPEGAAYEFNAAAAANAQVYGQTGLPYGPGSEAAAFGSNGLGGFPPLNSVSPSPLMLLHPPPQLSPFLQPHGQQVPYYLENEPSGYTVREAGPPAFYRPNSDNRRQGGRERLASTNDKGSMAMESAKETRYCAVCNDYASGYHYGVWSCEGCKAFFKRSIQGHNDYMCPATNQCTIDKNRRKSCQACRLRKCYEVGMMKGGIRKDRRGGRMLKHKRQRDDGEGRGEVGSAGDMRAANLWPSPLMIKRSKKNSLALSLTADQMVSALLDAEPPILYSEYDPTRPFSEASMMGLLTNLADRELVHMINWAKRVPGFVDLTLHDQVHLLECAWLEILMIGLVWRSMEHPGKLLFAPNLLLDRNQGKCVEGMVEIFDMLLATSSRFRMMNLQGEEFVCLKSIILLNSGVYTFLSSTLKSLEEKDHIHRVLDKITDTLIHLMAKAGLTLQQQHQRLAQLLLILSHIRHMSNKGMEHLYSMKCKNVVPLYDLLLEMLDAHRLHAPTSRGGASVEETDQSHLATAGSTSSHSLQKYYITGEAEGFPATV
As to the kind of experiment: Breast Cancer Cell ER-α In Cell Western Assay (SP1). The following applies: 4 or 24 hr post compound addition; for Emax: MCF7, SP1 antibody, read-out: ER-α In Cell Western Assay (SP1) Max Response; for DC50: SP1 antibody, read-out: ER-α In Cell Western Assay (SP1) IC50. Format: cell-based. Put shortly: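 MCF-7 cells in charcoal-stripped FBS medium, treated with 11-point semilog dilutions (0.3–0.000003 μM final) for 4 or 24 h. Fixed cells immunostained with SP1 antibody (800 nm) and DRAQ5 DNA (700 nm); ER/DNA ratio expressed as % of untreated cells.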

For assay [2], the system named is MCF-7 cells. As to the kind of experiment: Breast Cancer Cell Viability Assays (MCF-7, CellTiter-Glo). Format: cell-based. The following applies: 5 days' compound exposure; for IC50: Homo sapiens, MCF7, 120 h. An outline of the steps:
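MCF-7 cells (320/well, RPMI with 10% FBS) exposed for 5 days to an eleven-point semilog series, 0.3–0.000003 μM final. Viability read by CellTiter-Glo luminescence, expressed as background-corrected percent of untreated cells.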
(In general: Cellular ATP, detected with luciferase, serves as a proxy for viable cell number.)

Each structure is given as a SMILES string.

For `COc1ccc(/C(=C(\c2ccc(/C=C/C(=O)O)cc2)c2ccc3[nH]nc(F)c3c2)C2CC2)c(C#N)c1` [Example 121, (E)-3-(4-((E)-2-(2-Cyano-4-methoxyphenyl)-2-cyclopropyl-1-(3-fluoro-1H-indazol-5-yl)vinyl)phenyl)acrylic acid], in assay [1], the Emax was at least 40% and the DC50 was at most 100 nM. Further, in assay [2], the “MCF7 Viability Assay Max Response” value is on record as “++ (++ = a single % value ≧ 40%)” and the IC50 was at most 100 nM.
As for `CS(=O)(=O)c1cnc(Oc2ccc(/C(=C(\c3ccc(/C=C/C(=O)O)cc3)c3ccc4[nH]nc(F)c4c3)C3CCC3)cc2)cn1` [Example 122, (E)-3-(4-((E)-2-Cyclobutyl-1-(3-fluoro-1H-indazol-5-yl)-2-(4-((5-(methylsulfonyl)pyrazin-2-yl)oxy)phenyl)vinyl)phenyl)acrylic acid], in assay [1], the Emax was at least 40% and the DC50 was at most 100 nM. In assay [2], the “MCF7 Viability Assay Max Response” value is reported as “++ (++ = a single % value ≧ 40%)” and the IC50 is at most 100 nM.
As to `O=C(O)/C=C/c1ccc(/C(=C(\c2ccccc2F)C2CCC2)c2ccc3[nH]nc(F)c3c2)cc1` [Example 123, (E)-3-(4-((E)-2-Cyclobutyl-1-(3-fluoro-1H-indazol-5-yl)-2-(2-fluorophenyl)vinyl)phenyl)acrylic acid], in assay [1], the Emax was at least 40% and the DC50 is at most 100 nM. In addition, in assay [2], the “MCF7 Viability Assay Max Response” value is recorded as “++ (++ = a single % value ≧ 40%)” and the IC50 was at most 100 nM.
On to `O=C(O)/C=C/c1ccc(/C(=C(\c2ccccc2Cl)C2CCC2)c2ccc3[nH]nc(F)c3c2)cc1` [Example 124, (E)-3-(4-((E)-2-(2-Chlorophenyl)-2-cyclobutyl-1-(3-fluoro-1H-indazol-5-yl)vinyl)phenyl)acrylic acid], for which, in assay [1], the Emax was at least 40% and the DC50 was at most 100 nM. In assay [2], the “MCF7 Viability Assay Max Response” value is reported as “++ (++ = a single % value ≧ 40%)” and the IC50 is at most 100 nM.
Consider `Cc1ccccc1/C(=C(\c1ccc(/C=C/C(=O)O)cc1)c1ccc2[nH]nc(F)c2c1)C1CCC1` [Example 125, (E)-3-(4-((E)-2-Cyclobutyl-1-(3-fluoro-1H-indazol-5-yl)-2-(o-tolyl)vinyl)phenyl)acrylic acid], for which, in assay [1], the Emax is at least 40% and the DC50 is at most 100 nM. In assay [2], the “MCF7 Viability Assay Max Response” value is given as “++ (++ = a single % value ≧ 40%)” and the IC50 is at most 100 nM.
`Cc1cscc1/C(=C(\c1ccc(/C=C/C(=O)O)cc1)c1cccc2[nH]ncc12)C1CCC1` [Example 126, (E)-3-(4-((E)-2-Cyclobutyl-1-(1H-indazol-4-yl)-2-(4-methylthiophen-3-yl)vinyl)phenyl)acrylic acid]: in assay [1], the Emax was at least 40% and the DC50 is at most 100 nM. Further, in assay [2], the “MCF7 Viability Assay Max Response” value was “++ (++ = a single % value ≧ 40%)” and the IC50 was at most 100 nM.
Consider `COc1cc(C)c(/C(=C(\c2ccc(/C=C/C(=O)O)cc2)c2cccc3[nH]ncc23)C2CCC2)cn1` [Example 127, (E)-3-(4-((E)-2-Cyclobutyl-1-(1H-indazol-4-yl)-2-(6-methoxy-4-methylpyridin-3-yl)vinyl)phenyl)acrylic acid], for which, in assay [1], the Emax was at least 40% and the DC50 was at most 100 nM. Further, in assay [2], the “MCF7 Viability Assay Max Response” value is “++ (++ = a single % value ≧ 40%)” and the IC50 was at most 100 nM.
With `O=C(O)/C=C/c1ccc(/C(=C(\c2cccnc2)C2CCC2)c2ccc3[nH]nc(F)c3c2)cc1` [Example 128, (E)-3-(4-((E)-2-Cyclobutyl-1-(3-fluoro-1H-indazol-5-yl)-2-(pyridin-3-yl)vinyl)phenyl)acrylic acid], in assay [1], the Emax is at least 40% and the DC50 was at most 100 nM. Also, in assay [2], the “MCF7 Viability Assay Max Response” value is “+ (+ = a single % value < 40%)” and the IC50 was over 100 nM.
For `Cc1cncc(/C(=C(\c2ccc(/C=C/C(=O)O)cc2)c2ccc3[nH]nc(F)c3c2)C2CCC2)c1` [Example 129, (E)-3-(4-((E)-2-Cyclobutyl-1-(3-fluoro-1H-indazol-5-yl)-2-(5-methylpyridin-3-yl)vinyl)phenyl)acrylic acid], in that order: at least 40%, at most 100 nM, “++ (++ = a single % value ≧ 40%)” and at most 100 nM.
Take `O=C(O)/C=C/c1ccc(/C(=C(\c2cncc(Cl)c2)C2CCC2)c2ccc3[nH]nc(F)c3c2)cc1` [Example 130, (E)-3-(4-((E)-2-(5-Chloropyridin-3-yl)-2-cyclobutyl-1-(3-fluoro-1H-indazol-5-yl)vinyl)phenyl)acrylic acid]: in assay [1], the Emax is at least 40% and the DC50 is at most 100 nM. Further, in assay [2], the “MCF7 Viability Assay Max Response” value was “++ (++ = a single % value ≧ 40%)” and the IC50 was at most 100 nM.
As for `O=C(O)/C=C/c1ccc(/C(=C(\c2cncc(F)c2)C2CCC2)c2ccc3[nH]nc(F)c3c2)cc1` [Example 131, (E)-3-(4-((E)-2-Cyclobutyl-1-(3-fluoro-1H-indazol-5-yl)-2-(5-fluoropyridin-3-yl)vinyl)phenyl)acrylic acid], in assay [1], the Emax is at least 40% and the DC50 is at most 100 nM. Further, in assay [2], the “MCF7 Viability Assay Max Response” value is recorded as “++ (++ = a single % value ≧ 40%)” and the IC50 was at most 100 nM.
In the case of `COc1cncc(/C(=C(\c2ccc(/C=C/C(=O)O)cc2)c2ccc3[nH]nc(F)c3c2)C2CCC2)c1` [Example 132, (E)-3-(4-((E)-2-Cyclobutyl-1-(3-fluoro-1H-indazol-5-yl)-2-(5-methoxypyridin-3-yl)vinyl)phenyl)acrylic acid], in assay [1], the Emax is at least 40% and the DC50 is at most 100 nM. For the same compound, in assay [2], the “MCF7 Viability Assay Max Response” value is listed as “++ (++ = a single % value ≧ 40%)” and the IC50 was at most 100 nM.
For `COc1cc(C)ncc1/C(=C(\c1ccc(/C=C/C(=O)O)cc1)c1ccc2[nH]nc(F)c2c1)C1CCC1` [Example 133, (E)-3-(4-((E)-2-Cyclobutyl-1-(3-fluoro-1H-indazol-5-yl)-2-(4-methoxy-6-methylpyridin-3-yl)vinyl)phenyl)acrylic acid], in assay [1], the Emax is at least 40% and the DC50 was at most 100 nM. In assay [2], the “MCF7 Viability Assay Max Response” value was “++ (++ = a single % value ≧ 40%)” and the IC50 was at most 100 nM.
For the compound `Cc1nc(/C=C/C(=O)O)ccc1/C(=C(\c1ccccc1)C1CCC1)c1ccc2[nH]nc(F)c2c1` [Example 134, (E)-3-(5-((Z)-2-Cyclobutyl-1-(3-fluoro-1H-indazol-5-yl)-2-phenylvinyl)-6-methylpyridin-2-yl)acrylic acid], in assay [1], the Emax was at least 40% and the DC50 was at most 100 nM. Besides, in assay [2], the “MCF7 Viability Assay Max Response” value is reported as “++ (++ = a single % value ≧ 40%)” and the IC50 was at most 100 nM.
Regarding `Cc1cc(/C(=C(\c2ccccc2)C2CCC2)c2ccc3[nH]nc(F)c3c2)cnc1/C=C/C(=O)O` [Example 135, (E)-3-(5-((Z)-2-Cyclobutyl-1-(3-fluoro-1H-indazol-5-yl)-2-phenylvinyl)-3-methylpyridin-2-yl)acrylic acid], in assay [1], the Emax is at least 40% and the DC50 was at most 100 nM. In assay [2], the “MCF7 Viability Assay Max Response” value was “++ (++ = a single % value ≧ 40%)” and the IC50 was over 100 nM.
